Test results from PubChem BioAssay (NCI).
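1) Cells in 96-well plates. 2) Compound, 48 h, 5 concentrations. 3) Linear interpolation between surrounding doses. 4) Unreached endpoint = highest concentration. Abbreviation: GI50, concentration required for 50% inhibition of growth. TGI marks complete inhibition of growth.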

What was measured:
Test in all cases: NCI-60 cell line screen, 48 h
SF-295 CNS = tested on: SF-295 CNS
HT29 colon = tested on: HT29 colon
OVCAR-8 ovarian = tested on: OVCAR-8 ovarian
NCI-H460 lung = tested on: NCI-H460 lung
M14 melanoma = tested on: M14 melanoma
MCF7 breast = tested on: MCF7 breast
PC-3 prostate = tested on: PC-3 prostate
HS 578T breast = tested on: HS 578T breast
K-562 leukemia = tested on: K-562 leukemia
T-47D breast = tested on: T-47D breast

Row | SMILES | TGI (SF-295 CNS) [µM] | TGI (HT29 colon) [µM] | TGI (OVCAR-8 ovarian) [µM] | TGI (NCI-H460 lung) [µM] | GI50 (SF-295 CNS) [µM] | GI50 (HT29 colon) [µM] | GI50 (M14 melanoma) [µM] | TGI (M14 melanoma) [µM] | GI50 (MCF7 breast) [µM] | TGI (MCF7 breast) [µM] | GI50 (OVCAR-8 ovarian) [µM] | GI50 (NCI-H460 lung) [µM] | GI50 (PC-3 prostate) [µM] | TGI (PC-3 prostate) [µM] | GI50 (HS 578T breast) [µM] | TGI (HS 578T breast) [µM] | TGI (K-562 leukemia) [µM] | TGI (T-47D breast) [µM] | GI50 (K-562 leukemia) [µM] | GI50 (T-47D breast) [µM]
1 | COc1cc(Nc2cnc3ccc(C(F)(F)F)cc3n2)cc(OC)c1OC | 91.2 | > 100 | > 100 | > 100 | – | – | – | – | – | – | – | – | – | – | – | – | – | – | – | –
2 | FC(F)(F)Oc1cccc(-c2cc(NCCCCCCNc3cc(-c4cccc(OC(F)(F)F)c4)nc4ccc(N5CCCC5)cc34)c3cc(N4CCCC4)ccc3n2)c1 | 3.11 | 4.35 | 5.08 | 3.4 | 1.69 | 2.15 | 1.84 | 3.65 | 1.73 | 3.49 | 2.13 | 1.84 | 2.02 | 4.42 | – | – | – | – | – | –
3 | CCCCCCCCCCCC[N+]1(CCCCCCCCCCCC)CCCC(C)C1 (configuration not stated) | 1.29 | 1.09 | – | – | 0.259 | 0.186 | – | – | 0.257 | 1.2 | – | – | 0.167 | 0.536 | 0.472 | 2.2 | – | – | – | –
4 | CC1=N/C(=C\c2ccc(/C=C3/N=C(C)OC3=O)cc2)C(=O)O1 | – | > 100 | > 100 | – | – | – | – | > 100 | – | – | – | – | – | – | – | – | > 100 | – | – | –
5 | COCC([C@@H](O)C(O)C(=O)NCC[C@@H](C)c1nc(/C=C/CC2OC3(C[C@H](O)C2C)OC(C(C[C@H](O)C(C)[C@H](O)C(C)/C=C(C)/C(C)=C/C=C/C(C)=C/C#N)OC)[C@@H](OP(=O)(O)O)C3(C)C)co1)N(C)C (some centres not stated) | 0.000328 | 0.000297 | 0.000423 | 0.000272 | – | – | – | 0.000323 | – | 0.000347 | – | – | – | 0.000321 | – | 0.000391 | – | 0.00195 | – | –
6 | O=C(NC1C(=O)NNC1c1cccc([N+](=O)[O-])c1)c1ccccc1 (configuration not stated) | > 100 | > 100 | > 100 | > 100 | – | – | – | > 100 | – | – | – | – | – | – | – | – | – | – | – | –
7 | CCN1C(=S)N(CC)C2C1NC(=S)N2/N=C/C=C/c1ccccc1OC (configuration not stated) | 9.18 | 14.4 | > 41.2 | > 33.4 | 0.113 | 0.33 | 0.179 | 0.575 | 0.171 | > 100 | 0.538 | 0.335 | 0.29 | > 100 | 0.322 | > 100 | > 72.1 | – | 0.129 | –
8 | N#CNC(N)=NCc1ccccc1 | > 100 | > 100 | > 100 | > 100 | – | – | – | > 100 | – | – | – | – | – | – | – | – | – | – | – | –
9 | COc1cc2oc(-c3ccc(O)cc3)cc(=O)c2c(O)c1C1OC(CO)C(O)C(O)C1O (configuration not stated) | > 100 | > 100 | > 100 | > 100 | – | – | – | > 100 | – | – | – | – | – | – | – | – | > 100 | – | – | –
10 | Cc1ccc(S(=O)(=O)OCC/C(=C\[Si](C)(C)C)c2ccccc2)cc1 | > 100 | > 100 | > 100 | > 100 | – | – | – | > 100 | – | – | – | – | – | – | – | – | > 100 | – | – | –
11 | O=C(NC12CC3CCC1CC(C3)C2)[C@@H]1CCCN1C(=O)OCc1ccccc1 (some centres not stated) | > 100 | > 100 | > 100 | – | – | – | – | > 100 | – | – | – | – | – | – | – | – | > 100 | – | – | –
12 | OCc1cc2c(cn1)[nH]c1ccc(NCc3ccccc3)cc12 | 59.9 | 32.2 | > 100 | 80.2 | – | – | – | 37.5 | – | – | – | – | – | – | – | – | > 100 | – | – | –
13 | CCCCCCCC(=O)OCC(COC(=O)C(C)(C)C)OC(=O)Cc1ccccc1 (configuration not stated) | > 100 | – | > 100 | > 100 | – | – | – | > 100 | – | – | – | – | – | – | – | – | > 100 | – | – | –
14 | O=C1NC(=O)c2c1n(Cc1ccccc1)c(=O)n2Cc1ccccc1 | > 100 | > 100 | > 100 | > 100 | – | – | – | > 100 | – | – | – | – | – | – | – | – | > 100 | – | – | –
15 | Cc1ccc2c(c1)CN1c3ccc(C)cc3CN2C1c1ccccc1O | > 100 | > 100 | > 100 | > 100 | – | – | – | > 100 | – | – | – | – | – | – | – | – | > 100 | – | – | –
16 | CCN(CC)CCCNc1ccc(C)c2sc3ccccc3c(=O)c12 | 2.22 | 1.09 | 3.26 | 1.71 | 0.808 | 0.279 | 0.193 | 0.401 | 0.277 | 1.05 | 1.41 | 0.46 | 0.758 | 2.57 | 1.49 | 5.7 | – | 2.55 | – | 0.492
17 | C[C@]12CCC3[C@@H](CCC45OC4C(=O)CC[C@]35C)C1Cc1cnn(-c3ccc(F)cc3)c1N2 (some centres not stated) | > 100 | 33 | > 100 | > 100 | – | – | – | > 100 | – | – | – | – | – | – | – | – | 66.8 | – | – | –
18 | COC(=O)CCC(NC(=S)N/N=C/c1cccs1)C(=O)OC (configuration not stated) | > 100 | > 100 | > 100 | > 100 | – | – | – | > 100 | – | – | – | – | – | – | – | – | > 100 | – | – | –
19 | O=c1cc(O)cc2n1CCC2 | > 100 | > 100 | > 100 | > 100 | – | – | – | > 100 | – | – | – | – | – | – | – | – | > 100 | – | – | –
20 | N#Cc1nc2c(S(=O)(=O)c3ccc(Cl)cc3)c(N)n(Nc3cccc(Cl)c3)c2nc1C#N | 0.276 | – | > 100 | > 100 | 0.0427 | 0.0295 | 0.0671 | 0.304 | 0.015 | – | – | 0.0704 | 0.00279 | – | – | – | – | – | 0.0309 | 0.0258
21 | Cc1cc([N+](=O)[O-])c(C)c2c1[nH]c1ccc(Cl)cc12 | > 100 | > 100 | > 100 | > 100 | – | – | – | > 100 | – | – | – | – | – | – | – | – | > 100 | – | – | –
22 | N#C/C(=C\c1cc(OCc2ccccc2)c(OCc2ccccc2)cn1)C(N)=O | > 100 | > 100 | > 100 | > 100 | – | – | – | > 100 | – | – | – | – | – | – | – | – | > 100 | – | – | –
23 | COc1ccc(C(=O)c2cc(OC)c(OC)c(OC)c2OC)cc1O | 5.18 | > 100 | > 100 | > 100 | 1.94 | 3.8 | 3.1 | > 100 | 3.83 | > 100 | 4.06 | 3.59 | 4.06 | > 100 | 3.41 | > 100 | – | > 100 | – | 4.64
